PubChem BioAssay (NCI)
Where “and” joins values, the source holds several entries; their conditions need not be identical. Identical values can stand only once.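 All cell lines were grown in 96-well plates and treated with compound for 48 hours. GI50 = concentration required for 50% inhibition of growth. The concentration for full growth arrest is given as TGI.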

How the values were obtained:
Experiment in all cases: NCI anticancer screen, dose series, 48 h
[1] = test system: 786-0 renal
[2] = test system: OVCAR-3 ovarian
[3] = test system: SNB-75 CNS
[4] = test system: SK-OV-3 ovarian
[5] = test system: SK-MEL-5 melanoma
[6] = test system: NCI-H23 lung
[7] = test system: UACC-257 melanoma
[8] = test system: SF-268 CNS
[9] = test system: UACC-62 melanoma
[10] = test system: CCRF-CEM leukemia

| SMILES | TGI [1] [µM] | TGI [2] [µM] | TGI [3] [µM] | TGI [4] [µM] | TGI [5] [µM] | TGI [6] [µM] | TGI [7] [µM] | TGI [8] [µM] | TGI [9] [µM] | TGI [10] [µM] | GI50 [1] [µM] | GI50 [2] | GI50 [3] [µM] | GI50 [4] [µM] | GI50 [5] | GI50 [6] [µM] | GI50 [7] [µM] | GI50 [8] [µM] | GI50 [9] | GI50 [10] [µM] |
| --- | --- | --- | --- | --- | --- | --- | --- | --- | --- | --- | --- | --- | --- | --- | --- | --- | --- | --- | --- | --- |
| OC1CN(OC/C=C/c2ccccc2)CC(O)C1O (stereo not given) | 77 | > 100 | > 100 | > 100 | > 100 | > 100 | > 100 | > 100 | > 100 | > 100 | – | – | – | – | – | – | – | – | – | – |
| COc1cc2c(cc1OCCCCNC(=O)c1cc3ccccc3[nH]1)N=CC1CCCN1C2=O (stereo not given) | > 100 | > 100 | > 100 | 83.6 | 23.9 | > 100 | 43.8 | 28 | 40.7 | > 100 | 33.5 | 8.59 µM | 33.9 | 29.9 | 5.65 µM | 28.4 | 17.4 | 4.4 | 15.8 µM | 3.45 |
| COc1ccc(Nc2c3ccccc3nc3c2c2ccccc2n3C)cc1 | > 100 | > 100 | > 100 | – | 37.4 | > 100 | > 100 | > 100 | 41.5 | – | 40.6 | 23.5 µM | > 100 | – | 14 µM | 34.8 | 37.5 | 28 | 11.4 µM | – |
| COc1ccc2c(=O)c([Se]c3coc4cc(OC)ccc4c3=O)coc2c1 | > 100 | > 100 | 87.5 | > 100 | > 100 | > 100 | > 100 | > 100 | > 100 | > 100 | – | – | – | – | – | – | – | – | – | – |
| NC(=O)c1ccccc1NC(=O)C(=O)C(C(=O)c1ccc2ccccc2c1)C1OC(=O)c2ccccc21 (stereo not given) | 19.9 | 39.6 | 45.2 | 75.2 | 24.6 | – | 37.4 | 37.1 | 22.5 | 77.6 | – | – | – | – | – | – | – | – | – | – |
| N/C(=N\O)c1ncc(-c2ccc(C(F)(F)F)cc2)c(NC2CCCCCC2)n1 | 13.1 | 15.2 | 20.6 | 20.8 | 15.5 | 16.3 | 13.2 | 15.7 | 10.5 | 11.8 | 3.54 | 8.8 µM and 3.74 µM | 5.11 | 7.05 | 4.66 µM and 3.44 µM | 3.76 | 3.23 | 3.64 | 9.12 µM and 2.65 µM | 2.46 |
| CCCCCCCCCCCCCCCCOC(=O)C(C(=O)OCCCCCCCCCCCCCCCC)[N+](C)(C)CCOC(C)=O | 32.7 | 32.6 | 35.6 | 34.8 | 35.1 | 30.3 | 35 | 44.1 | 45.7 | 28.6 | – | – | – | – | – | – | – | – | – | – |
| O=C(Nc1cccc(Cl)c1)Nc1cccc(Cl)c1 | > 100 | > 100 | 44.3 | > 100 | > 100 | – | > 100 | > 100 | > 100 | – | 36.7 | 2.92 µM | 2.49 | > 100 | > 100 µM | – | > 100 | > 81.6 | 3.69 µM | – |
| Cc1cc2c3ccccc3n(C)c2c2c1C(=O)c1ccccc1C2=O | 34.3 | 54.1 | > 100 | 61.7 | – | 44 | 43.3 | > 100 | 57.3 | 25.5 | – | – | – | – | – | – | – | – | – | – |
| COC(=O)/C(C#N)=C\N1CCN(C(=O)c2ccco2)C1=S | 21.7 | 33.6 | > 100 | > 100 | 31 | 27.7 | 22.5 | 17.9 | 27.2 | – | 6.25 | 4.92 µM | 15.5 | 28.2 | 14.8 µM | 13.2 | 5.94 | 4.83 | 10.7 µM | – |
| COc1ccc(CN2c3ccccc3Sc3ccccc32)cc1F | > 100 | 2.04 | 98.8 | > 100 | > 100 | > 100 | – | > 100 | > 100 | > 100 | 0.615 | 0.312 µM | 0.257 | 0.559 | 0.446 µM | 0.682 | – | 1.14 | 0.516 µM | 0.407 |
| COc1ccc(/C=C2/C(=O)N(C(=O)c3ccccc3O)N=C2C)cc1OC | > 100 | 10.5 | – | > 100 | 24.6 | – | > 100 | > 100 | 0.591 | > 100 | – | – | – | – | – | – | – | – | – | – |
| Cn1cc(-c2csc(-c3c[nH]c4ncccc34)n2)c2cc(Br)cnc21 | > 100 | > 100 | 7.35 | > 100 | – | > 100 | – | > 100 | > 100 | > 100 | 9.65 | 2.91 µM | 2.18 | 3.25 | – | 2.8 | – | 6.01 | 3.47 µM | 6.81 |
| O=C(c1cc2ccccc2[nH]1)C(O)(c1cc2ccccc2[nH]1)c1cc2ccccc2[nH]1 | > 246 | > 246 | – | > 246 | > 246 | > 246 | > 246 | > 246 | > 246 | > 246 | – | – | – | – | – | – | – | – | – | – |
| Cc1ccc(SSCCCS(=O)O)cc1 | > 100 | > 100 | 79.5 | 85.9 | > 100 | > 100 | > 100 | 48.2 | > 100 | – | – | – | – | – | – | – | – | – | – | – |
| C=C1CC[C@@H]2C(C)(C)[C@@H](O)CC[C@@]2(C)[C@@H]1COc1ccc2ccc(=O)oc2c1 | 30.6 | 29.1 | 32.1 | – | 18 | 33.8 | 32.1 | 33.1 | 23.7 | 68.3 | 14.8 | 13 µM | 10.9 | – | 5.68 µM | 13.8 | 14.1 | 12.2 | 10.2 µM | – |
